This note sets out measurements from publication PMC7504639, “Fluorescence Lifetime and Intensity of Thioflavin T as Reporters of Different Fibrillation Stages: Insights Obtained from Fluorescence Up-Conversion and Particle Size Distribution Measurements” (International Journal of Molecular Sciences, 2020).

In this assay the target is T1, Human recombinant insulin (Ins); protofibrils / mature fibrils (Homo sapiens, UniProt P01308).
T1 construct: mature two-chain insulin (cut from proinsulin), recombinant, PanEco; aggregated to amyloid fibrils at pH 2, 62 °C; not the native monomer
Description: fluorescence-mode nanoparticle tracking (fibril staining). It is filed as binding. To be noted: mature amyloid fibrils, not native insulin.

Structures are written as SMILES. Counter-ions that a name gives are not always drawn.

T1 sequence (P01308 25-54): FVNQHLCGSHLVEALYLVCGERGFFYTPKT
T1 sequence (P01308 90-110): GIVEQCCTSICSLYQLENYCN

For the molecule `CC[n+]1c(/C=C/c2c(C)cc(N(C)C)cc2C)sc2ccccc21` [2M-DMASEBT, trans2-(′-(dimethylamino)-2,6-dimethylstyryl)-3-ethyl-1,3-benzothiazole tosylate], the “fluorescence-mode nanoparticle tracking (fibril staining)” value was “Fibrils were stained using the ThT derivative 2M-DMASEBT”.
